# Source: patent EP0655506B1 (priority 1994, dated 1995)
# Like-named read-outs stand apart in the source and are kept apart here.
# Key:
# [1] = target: T1, E. coli DNA polymerase I (Klenow fragment) (Escherichia coli, UniProt P00582); details: cited from earlier work
# T1 construct: manganese reduces the discrimination of Klenow fragment against ddATP from 550 to 3.9 fold
# T7 DNA polymerase = T7 DNA polymerase (Escherichia phage T7, UniProt P00581); details: '(for ddATP)' stands at the end of the sentence, cited from earlier work
# [2] = target: T2, E. coli DNA polymerase I (large fragment, Klenow fragment), wild type (Escherichia coli, UniProt P00582); assay: Inhibition of DNA synthesis on synthetic Primer-Template A, competition of dATP and ddATP (Example 9); format: biochemical; details: in the presence of 10 µM dATP, 37°C, read-out: [ddATP] for 50% inhibition
# T2 construct: The large fragment of E. coli DNA polymerase I, commonly called the Klenow fragment; made in house
# Protocol: In this example the competition between a dNTP and a ddNTP is assayed for use at a single site in a synthetic primer-template. This assay differs from the others in that it limits the comparison of the use of the two substrates to a single site, avoiding the complication of sequence-specific variability in discrimination. […]
# Each reaction mixture contains 25 pmoles each of primer and template. […] The mixtures are incubated at 37°C for 1 min (70°C for thermophilic DNA polymerases), and the reactions are initiated by the addition of 5 µl aliquots (0.01 to 1 unit) of the DNA polymerase being analyzed diluted in 20 mM TrisHCl, pH 7.5, 10 mM 2-mercaptoethanol and 0.05% bovine serum albumin. […] The disks are then dried under a heat lamp and counted in a scintillation counter in 5 ml of fluor (Opti-Fluor O, Packard). From the amount of radioactivity on each disk, the amount […] incorporated was determined. […]
# All reactions are carried out with a constant amount of the DNA polymerase being analyzed; the amount of DNA polymerase should be sufficient to replicate 50% of the total dCMP residues in the single-stranded region of the template in the 10 min incubation in the presence of 10 µM dATP and the absence of ddATP. […]
# [3] = target: T3, HIV reverse transcriptase, change of Glu 89 to Glycine (Human immunodeficiency virus type 1 group M subtype B, UniProt P04585, E676G); details: relative to the unmutated enzyme; cited from earlier work
# T3 construct: glu-89 of human immunodeficiency virus type 1 reverse transcriptase
# T1 sequence (P00582 324-928): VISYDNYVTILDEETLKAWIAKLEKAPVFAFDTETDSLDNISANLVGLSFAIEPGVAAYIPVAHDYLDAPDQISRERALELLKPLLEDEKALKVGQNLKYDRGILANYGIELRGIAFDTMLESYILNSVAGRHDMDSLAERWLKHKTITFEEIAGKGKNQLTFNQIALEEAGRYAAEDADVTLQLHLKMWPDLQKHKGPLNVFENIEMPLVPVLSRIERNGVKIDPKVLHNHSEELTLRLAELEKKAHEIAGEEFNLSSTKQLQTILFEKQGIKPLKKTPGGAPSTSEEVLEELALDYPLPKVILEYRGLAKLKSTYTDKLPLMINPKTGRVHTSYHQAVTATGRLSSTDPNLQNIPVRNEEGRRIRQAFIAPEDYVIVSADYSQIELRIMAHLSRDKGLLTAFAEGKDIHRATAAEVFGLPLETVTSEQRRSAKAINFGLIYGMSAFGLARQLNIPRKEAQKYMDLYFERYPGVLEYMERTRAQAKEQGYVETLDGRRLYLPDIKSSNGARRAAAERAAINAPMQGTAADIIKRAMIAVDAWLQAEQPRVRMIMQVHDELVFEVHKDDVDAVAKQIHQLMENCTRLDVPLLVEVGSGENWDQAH
# Sequence of T7 DNA polymerase (P0AA25 2-109): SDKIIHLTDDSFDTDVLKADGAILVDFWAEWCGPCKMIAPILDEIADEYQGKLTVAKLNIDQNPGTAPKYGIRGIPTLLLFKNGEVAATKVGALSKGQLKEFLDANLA
# Sequence of T7 DNA polymerase (P00581 whole entry, the tested form may be a part): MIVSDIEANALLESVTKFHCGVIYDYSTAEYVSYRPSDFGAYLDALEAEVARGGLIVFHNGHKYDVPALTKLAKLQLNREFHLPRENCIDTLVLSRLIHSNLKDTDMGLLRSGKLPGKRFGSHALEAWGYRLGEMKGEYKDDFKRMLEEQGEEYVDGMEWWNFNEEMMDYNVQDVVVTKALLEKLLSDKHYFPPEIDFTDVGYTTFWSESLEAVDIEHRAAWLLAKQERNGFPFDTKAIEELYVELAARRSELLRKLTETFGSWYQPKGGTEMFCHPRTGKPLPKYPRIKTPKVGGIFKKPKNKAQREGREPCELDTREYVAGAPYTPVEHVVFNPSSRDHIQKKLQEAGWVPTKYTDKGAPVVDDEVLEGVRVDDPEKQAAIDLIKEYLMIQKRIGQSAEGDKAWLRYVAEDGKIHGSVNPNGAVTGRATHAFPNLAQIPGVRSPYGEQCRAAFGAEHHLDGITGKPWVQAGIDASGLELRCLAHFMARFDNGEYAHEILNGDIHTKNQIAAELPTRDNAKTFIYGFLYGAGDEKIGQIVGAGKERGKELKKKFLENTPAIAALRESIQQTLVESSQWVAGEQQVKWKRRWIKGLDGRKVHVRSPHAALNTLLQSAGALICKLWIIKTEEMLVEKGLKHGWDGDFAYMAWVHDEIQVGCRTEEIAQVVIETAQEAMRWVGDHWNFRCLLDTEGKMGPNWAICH
# T2 sequence (P00582 324-928): as the sequence (P00582 324-928) above
SMILES,discrimination against ddATP ([1]; in the presence of manganese),discrimination against ddATP ([1]; magnesium),discrimination (T7 DNA polymerase; in the presence of manganese),discrimination (T7 DNA polymerase; magnesium),IC50 [2],ddGTP required to obtain same extent of inhibition [3]
Nc1ncnc2c1ncn2[C@H]1CC[C@@H](COP(=O)(O)OP(=O)(O)OP(=O)(O)O)O1 [ddATP],3.9 fold,550 fold,1,3.7,> 500 µM,
Nc1nc2c(ncn2[C@H]2CC[C@@H](COP(=O)(O)OP(=O)(O)OP(=O)(O)O)O2)c(=O)[nH]1 [ddGTP],,,,,,about 10 times more
